The target of the experiment is KRas G12D (Homo sapiens (Human), UniProt P01116, G12D). Briefly: KRas G12D Binding Assay (TR-FRET displacement of Cy5 labelled tracer). The conditions noted are these: GDP-loaded KRAS G12D (amino acids 1:169), 60 minute incubation at 22° C. Here is the method: After a 60 minute incubation at 22° C., the reaction was measured using a PerkinElmer EnVision multimode plate reader via TR-FRET dual wavelength detection, and the percent of control (POC) calculated using a ratiometric emission factor. […] The POC values were fit to a 4-parameter logistic curve and the IC50 value was determined as the concentration where the curve crosses 50 POC.
KRas G12D, sequence (P01116 other isoform, or with tags, fused parts or gaps G12D): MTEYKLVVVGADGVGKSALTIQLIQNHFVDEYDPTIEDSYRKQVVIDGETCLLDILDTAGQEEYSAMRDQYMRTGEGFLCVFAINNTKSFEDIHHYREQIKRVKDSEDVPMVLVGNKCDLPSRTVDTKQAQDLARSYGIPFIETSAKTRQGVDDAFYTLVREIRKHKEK
ND stands for “not determined.”

As to `Fc1c(-c2c3ccccc3cc3[nH]ncc23)ncc2c(N3C[C@H]4CC[C@@H](C3)N4)nc(OCC34CCCN3CCC4)nc12` [Example 257, 4-(4-((1R,5S)-3,8-diazabicyclo[3.2.1]octan-3-yl)-8-fluoro-2-((hexahydro-1H-pyrrolizin-7a-yl)methoxy)pyrido[4,3-d]pyrimidin-7-yl)-1H-benzo[f]indazole], the IC50 was 5.1 nM. This counts as single-digit nanomolar.

`Fc1c(-c2c(OC(F)(F)F)ccc3[nH]ncc23)ncc2c(N3C[C@H]4CC[C@@H](C3)N4)nc(OCC34CCCN3CCC4)nc12` [Example 258, 4-((1R,5S)-3,8-diazabicyclo[3.2.1]octan-3-yl)-8-fluoro-2-((hexahydro-1H-pyrrolizin-7a-yl)methoxy)-7-(5-(trifluoromethoxy)-1H-indazol-4-yl)pyrido[4,3-d]pyrimidine]: the IC50 came out at 6.5 nM.

With `CCc1cccc2cc(O)cc(-c3ncc4c(N5C[C@H]6CC[C@@H](C5)N6)nc(OC[C@@]56CCCN5C[C@H](F)C6)nc4c3F)c12` [Example 259, 4-(4-((1R,5S)-3,8-diazabicyclo[3.2.1]octan-3-yl)-8-fluoro-2-(((2R,7aS)-2-fluorotetrahydro-1H-pyrrolizin-7a(5H)-yl)methoxy)pyrido[4,3-d]pyrimidin-7-yl)-5-ethylnaphthalen-2-ol], the IC50 stood at 0.8 nM.

`CN1C[C@H](OC(=O)NCCOCc2ccc(O)cc2)C[C@H]1COc1nc(N2C[C@H]3CC[C@@H](C2)N3)c2cnc(-c3cccc4cccc(Cl)c34)c(F)c2n1` [Example 260, (3R,5S)-5-(((4-((1R,5S)-3,8-diazabicyclo[3.2.1]octan-3-yl)-7-(8-chloronaphthalen-1-yl)-8-fluoropyrido[4,3-d]pyrimidin-2-yl)oxy)methyl)-1-methylpyrrolidin-3-yl (2-((4-hydroxybenzyl)oxy)ethyl)carbamate] came in with an IC50 of 107 nM.

`NCCOc1nc(N2C[C@H]3CC[C@@H](C2)N3)c2cnc(-c3cccc4cccc(Cl)c34)c(F)c2n1` [Example 261, 2-((4-((1R,5S)-3,8-diazabicyclo[3.2.1]octan-3-yl)-7-(8-chloronaphthalen-1-yl)-8-fluoropyrido[4,3-d]pyrimidin-2-yl)oxy)ethanamine] came in with an IC50 of 8300 nM.

`NC1(COc2nc(N3C[C@H]4CC[C@@H](C3)N4)c3cnc(-c4cccc5cccc(Cl)c45)c(F)c3n2)CCCCC1` [Example 262, 1-(((4-((1R,5S)-3,8-diazabicyclo[3.2.1]octan-3-yl)-7-(8-chloronaphthalen-1-yl)-8-fluoropyrido[4,3-d]pyrimidin-2-yl)oxy)methyl)cyclohexanamine]: the IC50 stood at 2260 nM.

Molecule `CCc1ccc(O)cc1-c1ncc2c(N3C[C@H]4CC[C@@H](C3)N4)nc(OCC34CCCN3CCC4)nc2c1F` [Example 263, 3-(4-((1R,5S)-3,8-diazabicyclo[3.2.1]octan-3-yl)-8-fluoro-2-((hexahydro-1H-pyrrolizin-7a-yl)methoxy)pyrido[4,3-d]pyrimidin-7-yl)-4-ethylphenol] yielded an IC50 of 1.5 nM.

In the case of `Fc1ccccc1-c1ncc2c(N3C[C@H]4CC[C@@H](C3)N4)nc(OCC34CCCN3CCC4)nc2c1F` [Example 264, 4-((1R,5S)-3,8-diazabicyclo[3.2.1]octan-3-yl)-8-fluoro-7-(2-fluorophenyl)-2-((hexahydro-1H-pyrrolizin-7a-yl)methoxy)pyrido[4,3-d]pyrimidine], the IC50 is 4700 nM.

For `Nc1cccc(F)c1-c1ncc2c(N3C[C@H]4CC[C@@H](C3)N4)nc(OCC34CCCN3CCC4)nc2c1F` [Example 265, 2-(4-((1R,5S)-3,8-diazabicyclo[3.2.1]octan-3-yl)-8-fluoro-2-((hexahydro-1H-pyrrolizin-7a-yl)methoxy)pyrido[4,3-d]pyrimidin-7-yl)-3-fluoroaniline], the IC50 came out at 794 nM.

With `Nc1c(Cl)cc(Cl)c(F)c1-c1ncc2c(N3C[C@H]4CC[C@@H](C3)N4)nc(OCC34CCCN3CCC4)nc2c1F` [Example 266, 2-(4-((1R,5S)-3,8-diazabicyclo[3.2.1]octan-3-yl)-8-fluoro-2-((hexahydro-1H-pyrrolizin-7a-yl)methoxy)pyrido[4,3-d]pyrimidin-7-yl)-4,6-dichloro-3-fluoroaniline], the IC50 was 278 nM.

With `Oc1ccccc1-c1ncc2c(N3C[C@H]4CC[C@@H](C3)N4)nc(OCC34CCCN3CCC4)nc2c1F` [Example 267, 2-(4-((1R,5S)-3,8-diazabicyclo[3.2.1]octan-3-yl)-8-fluoro-2-((hexahydro-1H-pyrrolizin-7a-yl)methoxy)pyrido[4,3-d]pyrimidin-7-yl)phenol], the IC50 was 3260 nM.

As to `CNc1c(F)cccc1-c1ncc2c(N3C[C@H]4CC[C@@H](C3)N4)nc(OCC34CCCN3CCC4)nc2c1F` [Example 268, 2-(4-((1R,5S)-3,8-diazabicyclo[3.2.1]octan-3-yl)-8-fluoro-2-((hexahydro-1H-pyrrolizin-7a-yl)methoxy)pyrido[4,3-d]pyrimidin-7-yl)-6-fluoro-N-methylaniline], the IC50 was determined as 1550 nM.

For `CCNc1c(F)cccc1-c1ncc2c(N3C[C@H]4CC[C@@H](C3)N4)nc(OCC34CCCN3CCC4)nc2c1F` [Example 269, 2-(4-((1R,5S)-3,8-diazabicyclo[3.2.1]octan-3-yl)-8-fluoro-2-((hexahydro-1H-pyrrolizin-7a-yl)methoxy)pyrido[4,3-d]pyrimidin-7-yl)-N-ethyl-6-fluoroaniline], the IC50 is 4040 nM.

In turn, `Oc1cccc(-c2ncc3c(N4C[C@H]5CC[C@@H](C4)N5)nc(OCC45CCCN4CCC5)nc3c2F)c1` [Example 271, 3-(4-((1R,5S)-3,8-diazabicyclo[3.2.1]octan-3-yl)-8-fluoro-2-((hexahydro-1H-pyrrolizin-7a-yl)methoxy)pyrido[4,3-d]pyrimidin-7-yl)phenol] had an IC50 of 1620 nM.

The molecule `Cc1ccccc1-c1ncc2c(N3C[C@H]4CC[C@@H](C3)N4)nc(OCC34CCCN3CCC4)nc2c1F` [Example 272, 4-((1R,5S)-3,8-diazabicyclo[3.2.1]octan-3-yl)-8-fluoro-2-((hexahydro-1H-pyrrolizin-7a-yl)methoxy)-7-(o-tolyl)pyrido[4,3-d]pyrimidine] displayed an IC50 of 1180 nM. This IC50 and that of the molecule before are within 1.5-fold of each other.

Molecule `COc1ccccc1-c1ncc2c(N3C[C@H]4CC[C@@H](C3)N4)nc(OCC34CCCN3CCC4)nc2c1F` [Example 273, 4-((1R,5S)-3,8-diazabicyclo[3.2.1]octan-3-yl)-8-fluoro-2-((hexahydro-1H-pyrrolizin-7a-yl)methoxy)-7-(2-methoxyphenyl)pyrido[4,3-d]pyrimidine] gave an IC50 of 1340 nM.

Take `Cc1c(Cl)cccc1-c1ncc2c(N3C[C@H]4CC[C@@H](C3)N4)nc(OCC34CCCN3CCC4)nc2c1F` [Example 274, 4-((1R,5S)-3,8-diazabicyclo[3.2.1]octan-3-yl)-7-(3-chloro-2-methylphenyl)-8-fluoro-2-((hexahydro-1H-pyrrolizin-7a-yl)methoxy)pyrido[4,3-d]pyrimidine]: the IC50 came to 35.9 nM. Compared with the last molecule, the IC50 is about 37-fold lower.

Consider `Cc1cccc(-c2ncc3c(N4C[C@H]5CC[C@@H](C4)N5)nc(OCC45CCCN4CCC5)nc3c2F)c1C` [Example 275, 4-((1R,5S)-3,8-diazabicyclo[3.2.1]octan-3-yl)-7-(2,3-dimethylphenyl)-8-fluoro-2-((hexahydro-1H-pyrrolizin-7a-yl)methoxy)pyrido[4,3-d]pyrimidine], for which the IC50 is 53.8 nM.

In turn, `Cc1cccc(-c2ncc3c(N4C[C@H]5CC[C@@H](C4)N5)nc(OCC45CCCN4CCC5)nc3c2F)c1Cl` [Example 276, 4-((1R,5S)-3,8-diazabicyclo[3.2.1]octan-3-yl)-7-(2-chloro-3-methylphenyl)-8-fluoro-2-((hexahydro-1H-pyrrolizin-7a-yl)methoxy)pyrido[4,3-d]pyrimidine] came in with an IC50 of 16.2 nM.

Regarding `Fc1c(-c2cccc(Cl)c2Cl)ncc2c(N3C[C@H]4CC[C@@H](C3)N4)nc(OCC34CCCN3CCC4)nc12` [Example 277, 4-((1R,5S)-3,8-diazabicyclo[3.2.1]octan-3-yl)-7-(2,3-dichlorophenyl)-8-fluoro-2-((hexahydro-1H-pyrrolizin-7a-yl)methoxy)pyrido[4,3-d]pyrimidine], the IC50 was determined as 35.2 nM. This IC50 is about 2.2-fold higher than that of the molecule before.

Consider `C#CCc1ccc(O)cc1-c1ncc2c(N3C[C@H]4CC[C@@H](C3)N4)nc(OCC34CCCN3CCC4)nc2c1F` [Example 279, 3-(4-((1R,5S)-3,8-diazabicyclo[3.2.1]octan-3-yl)-8-fluoro-2-((hexahydro-1H-pyrrolizin-7a-yl)methoxy)pyrido[4,3-d]pyrimidin-7-yl)-4-(prop-2-yn-1-yl)phenol], for which the IC50 stood at 1.6 nM.

The molecule `COCCNC(=O)O[C@@H]1C[C@@H](COc2nc(N3C[C@H]4CC[C@@H](C3)N4)c3cnc(-c4cccc5cccc(Cl)c45)c(F)c3n2)N(C)C1` [Example 280, (3R,5S)-5-(((4-((1R,5S)-3,8-diazabicyclo[3.2.1]octan-3-yl)-7-(8-chloronaphthalen-1-yl)-8-fluoropyrido[4,3-d]pyrimidin-2-yl)oxy)methyl)-1-methylpyrrolidin-3-yl (2-methoxyethyl)carbamate] showed an IC50 of 99.8 nM.

As for `C#Cc1c(F)ccc2cccc(-c3ncc4c(N5C[C@H]6CC[C@@H](C5)N6)nc(OC[C@@]56CCCN5C[C@H](F)C6)nc4c3F)c12` [Example 281, 4-((1R,5S)-3,8-diazabicyclo[3.2.1]octan-3-yl)-7-(8-ethynyl-7-fluoronaphthalen-1-yl)-8-fluoro-2-(((2R,7aS)-2-fluorohexahydro-1H-pyrrolizin-7a-yl)methoxy)pyrido[4,3-d]pyrimidine], the IC50 amounted to 0.9 nM.

Consider `Oc1cc(-c2ncc3c(N4C[C@H]5CC[C@@H](C4)N5)nc(OC[C@@]45CCCN4C[C@H](F)C5)nc3c2F)c2c(F)cccc2c1` [Example 282, 4-(4-((1R,5S)-3,8-diazabicyclo[3.2.1]octan-3-yl)-8-fluoro-2-(((2R,7aS)-2-fluorohexahydro-1H-pyrrolizin-7a-yl)methoxy)pyrido[4,3-d]pyrimidin-7-yl)-5-fluoronaphthalen-2-ol], for which the IC50 was found to be 0.7 nM. The IC50 values of the last two molecules are within 1.5-fold of each other.

The record behind these values is patent publication US20230279025A1, “KRAS G12D INHIBITORS” (Mirati Therapeutics, Inc., priority 2020, published 2023).
